Here are results for 31 compounds from patent US20250353853A1, “FLAVIVIRUS INHIBITORS” (IRBM S.P.A., priority 2022, published 2025).

Counter-ions that a name gives are not always drawn.

The target in test [1] is West Nile Virus (WNV) NS2B-NS3 protease (West Nile virus (WNV), UniProt P06935). In words: WNV Protease Inhibition Assay. The settings on record: read-out: WNV Protease IC50; 2 nM protease, 10 μM pERTKR-AMC substrate. The format is biochemical. From the text:
WNV Protease Inhibition Assay

Test [2] relates to ZIKV replicon in Vero cells. In words: ZIKV Replication Inhibition Assay (replicon, NanoLuc). As to conditions: Zika virus, Vero, 72 h, read-out: Zika Replicon EC50.

Sequence of West Nile Virus (WNV) NS2B-NS3 protease (P06935 1502-1679 limits assumed): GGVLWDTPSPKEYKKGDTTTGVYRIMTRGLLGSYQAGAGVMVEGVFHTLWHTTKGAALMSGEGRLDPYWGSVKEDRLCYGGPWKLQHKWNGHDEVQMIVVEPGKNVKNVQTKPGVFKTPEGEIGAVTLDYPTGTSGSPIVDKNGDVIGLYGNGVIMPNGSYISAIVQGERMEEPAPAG
Sequence of West Nile Virus (WNV) NS2B-NS3 protease (P06935 1371-1501 partner limits assumed): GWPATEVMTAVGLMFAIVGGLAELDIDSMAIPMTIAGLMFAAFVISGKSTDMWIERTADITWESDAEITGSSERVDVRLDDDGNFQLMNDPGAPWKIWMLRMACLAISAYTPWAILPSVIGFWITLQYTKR

For the compound `O=C([N-]c1c[n+]([C@@H](CO)Cc2ccccc2)no1)Nc1cccc(C(F)(F)F)c1` [Example 45], in test [1], the IC50 is 1 to 20 µM.

In the case of `Cc1ncc(-c2ccc(C[n+]3cc([N-]C(=O)Nc4cccc(C(F)(F)F)c4)on3)cc2)n1C` [Example 105, (3-(4-(1,2-dimethyl-1H-imidazol-5-yl)benzyl)-1,2,3-oxadiazol-3-ium-5-yl)((3-(trifluoromethyl)phenyl)carbamoyl)amide], the half-maximal effective concentration (EC50) in test [2] lay within 0.1 to 1 µM.

Regarding `O=C([N-]c1c[n+](Cc2csc(-c3cncnc3)c2)no1)Nc1cccc(C(F)(F)F)c1` [Example 100, (3-((5-(pyrimidin-5-yl)thiophen-3-yl)methyl)-1,2,3-oxadiazol-3-ium-5-yl)((3-(trifluoromethyl)phenyl)carbamoyl)amide], the EC50 in test [2] was in the range of 0.1 to 1 µM.

For the compound `Cc1ncnc(C)c1-c1ccc(C[n+]2cc([N-]C(=O)Nc3cccc(C(F)(F)F)c3)on2)cc1` [Example 81, (3-(4-(4,6-dimethylpyrimidin-5-yl)benzyl)-1,2,3-oxadiazol-3-ium-5-yl)((3-(trifluoromethyl)phenyl)carbamoyl)amide], in test [2], the half-maximal effective concentration (EC50) was < 0.1 µM.

Take `O=C([N-]c1c[n+](C2Cc3ccccc3C2)no1)Nc1cccc(C(F)(F)F)c1` [Example 10, (3-(2,3-dihydro-1H-inden-2-yl)-1,2,3-oxadiazol-3-ium-5-yl)((3-(trifluoromethyl)phenyl)carbamoyl)amide]: the concentration for a half-maximal effect (EC50) in test [2] was in the range of 1 to 20 µM.

As to `Cc1ncn(C)c1-c1ccc(C[n+]2cc([N-]C(=O)Nc3cccc(C(F)(F)F)c3)on2)nc1` [Example 118, (3-((5-(1,4-dimethyl-1H-imidazol-5-yl)pyridin-2-yl)methyl)-1,2,3-oxadiazol-3-ium-5-yl)((3-(trifluoromethyl)phenyl)carbamoyl)amide], the EC50 in test [2] fell in the range of 0.1 to 1 µM.

Consider `COc1ncc(-c2ccc(C[n+]3cc([N-]C(=O)Nc4cccc(C(F)(F)F)c4)on3)cc2)c(C)n1` [Example 90, (3-(4-(2-Methoxy-4-methylpyrimidin-5-yl)benzyl)-1,2,3-oxadiazol-3-ium-5-yl)((3-(trifluoromethyl)phenyl)carbamoyl)amide], for which the EC50 in test [2] is < 0.1 µM.

For the compound `CC(Cc1ccccc1)[n+]1cc([N-]C(=O)Nc2cccc(C(F)(F)F)c2)on1` (stereo not shown) [Example 1, (3-(1-Phenylpropan-2-yl)-1,2,3-oxadiazol-3-ium-5-yl)((3-(trifluoromethyl)phenyl)carbamoyl)amide], the EC50 in test [2] lay in the range of 1 to 20 µM.

Consider `CC(Cc1ccccc1)[n+]1cc([N-]C(=O)Nc2cccc(Cl)c2)on1` (stereo not shown) [Example 8, ((3-chlorophenyl)carbamoyl)(3-(1-phenylpropan-2-yl)-1,2,3-oxadiazol-3-ium-5-yl)amide], for which, in test [2], the EC50 was > 20 µM.

On to `Cc1noc(C)c1-c1cnc(C[n+]2cc([N-]C(=O)Nc3cccc(C(F)(F)F)c3)on2)cn1` [Example 169, (3-((5-(3,5-dimethylisoxazol-4-yl)pyrazin-2-yl)methyl)-1,2,3-oxadiazol-3-ium-5-yl)((3-(trifluoromethyl)phenyl)carbamoyl)amide], for which the EC50 in test [2] was in the range of 0.1 to 1 µM.

On to `O=C([N-]c1c[n+]([C@H](CO)Cc2ccccc2)no1)Nc1cccc(C(F)(F)F)c1` [Example 32, (S)-(3-(1-hydroxy-3-phenylpropan-2-yl)-1,2,3-oxadiazol-3-ium-5-yl)((3-(trifluoromethyl)phenyl)carbamoyl)amide], for which, in test [2], the concentration giving a half-maximal response (EC50) fell in the range of 1 to 20 µM.

For the compound `Cc1ncnc(OCCO)c1-c1ccc(C[n+]2cc([N-]C(=O)Nc3cccc(C(F)(F)F)c3)on2)cc1` [Example 112, (3-(4-(4-(2-hydroxyethoxy)-6-methylpyrimidin-5-yl)benzyl)-1,2,3-oxadiazol-3-ium-5-yl)((3-(trifluoromethyl)phenyl)carbamoyl)amide], the EC50 in test [2] was < 0.1 µM.

On to `O=C([N-]c1c[n+]([C@@H](CO)c2ccccc2)no1)Nc1cccc(C(F)(F)F)c1` [Example 30, (R)-(3-(2-hydroxy-1-phenylethyl)-1,2,3-oxadiazol-3-ium-5-yl)((3-(trifluoromethyl)phenyl)carbamoyl)amide], for which the concentration for a half-maximal effect (EC50) in test [2] lay within 1 to 20 µM.

As to `Cc1cc(C[n+]2cc([N-]C(=O)Nc3cccc(C(F)(F)F)c3)on2)ccc1-c1cncnc1C` [Example 101, (3-(3-methyl-4-(4-methylpyrimidin-5-yl)benzyl)-1,2,3-oxadiazol-3-ium-5-yl)((3-(trifluoromethyl)phenyl)carbamoyl)amide], the EC50 in test [2] was < 0.1 µM.

As for `O=C([N-]c1c[n+](Cc2ccc(-c3ccccc3)cc2)no1)Nc1cccc(C(F)(F)F)c1` [Example 17, (3-([1,1′-Biphenyl]-4-ylmethyl)-1,2,3-oxadiazol-3-ium-5-yl)((3-(trifluoromethyl)phenyl)carbamoyl)amide], the half-maximal effective concentration (EC50) in test [2] was 0.1 to 1 µM.

As to `NC[C@@H](Cc1ccc(-c2ccccc2)cc1)[n+]1cc([N-]C(=O)Nc2cccc(C(F)(F)F)c2)on1` [Example 66, (R)-(3-(1-([1,1′-biphenyl]-4-yl)-3-aminopropan-2-yl)-1,2,3-oxadiazol-3-ium-5-yl)((3-(trifluoromethyl)phenyl)carbamoyl)amide], the concentration for a half-maximal effect (EC50) in test [2] was 1 to 20 µM.

`Cc1noc(C)c1-c1ccc([C@@H](CN)[n+]2cc([N-]C(=O)Nc3cccc(C(F)(F)F)c3)on2)cc1` [Example 116, (S)-(3-(2-amino-1-(4-(3,5-dimethylisoxazol-4-yl)phenyl)ethyl)-1,2,3-oxadiazol-3-ium-5-yl)((3-(trifluoromethyl)phenyl)carbamoyl)amide formate]: the concentration giving a half-maximal response (EC50) in test [2] lay within 0.1 to 1 µM.

For the compound `O=C([N-]c1c[n+](Cc2ccc3ccccc3c2)no1)Nc1cccc(C(F)(F)F)c1` [Example 18, (3-(naphthalen-2-ylmethyl)-1,2,3-oxadiazol-3-ium-5-yl)((3-(trifluoromethyl)phenyl)carbamoyl)amide], in test [2], the half-maximal effective concentration (EC50) is 1 to 20 µM.

As for `NC[C@@H](Cc1ccccc1)[n+]1cc([N-]C(=O)Nc2cccc(C(F)(F)F)c2)on1` [Example 49, (R)-(3-(1-amino-3-phenylpropan-2-yl)-1,2,3-oxadiazol-3-ium-5-yl)((3-(trifluoromethyl)phenyl)carbamoyl)amide formate], in test [2], the concentration for a half-maximal effect (EC50) is > 20 µM.

In the case of `O=C([N-]c1c[n+]([C@H](CF)Cc2ccccc2)no1)Nc1cccc(C(F)(F)F)c1` [Example 37, (S)-(3-(1-fluoro-3-phenylpropan-2-yl)-1,2,3-oxadiazol-3-ium-5-yl)((3-(trifluoromethyl)phenyl)carbamoyl)amide], the EC50 in test [2] was > 20 µM.

For the compound `Cc1ncn(C)c1-c1ccc(C[n+]2cc([N-]C(=O)Nc3cccc(C(F)(F)F)c3)on2)cc1` [Example 98, (3-(4-(1,4-dimethyl-1H-imidazol-5-yl)benzyl)-1,2,3-oxadiazol-3-ium-5-yl)((3-(trifluoromethyl)phenyl)carbamoyl)amide], in test [2], the EC50 fell in the range of 0.1 to 1 µM.

On to `O=C([N-]c1c[n+](Cc2ccc(-c3cnn(C4CCNCC4)c3)cn2)no1)Nc1cccc(C(F)(F)F)c1` [Example 120, (3-((5-(1-(piperidin-4-yl)-1H-pyrazol-4-yl)pyridin-2-yl)methyl)-1,2,3-oxadiazol-3-ium-5-yl)((3-(trifluoromethyl)phenyl)carbamoyl)amide], for which the EC50 in test [2] fell in the range of 1 to 20 µM.

For `Cc1noc(C)c1-c1cccc(C[n+]2cc([N-]C(=O)Nc3cccc(C(F)(F)F)c3)on2)c1` [Example 94, (3-(3-(3,5-dimethylisoxazol-4-yl)benzyl)-1,2,3-oxadiazol-3-ium-5-yl)((3-(trifluoromethyl)phenyl)carbamoyl)amide], the EC50 in test [2] lay within 0.1 to 1 µM.

With `O=C([N-]c1c[n+](Cc2ccc(-c3cncnc3C3CC3)cc2)no1)Nc1cccc(C(F)(F)F)c1` [Example 91, (3-(4-(4-cyclopropylpyrimidin-5-yl)benzyl)-1,2,3-oxadiazol-3-ium-5-yl)((3-(trifluoromethyl)phenyl)carbamoyl)amide], the EC50 in test [2] fell in the range of 0.1 to 1 µM.

On to `O=C([N-]c1c[n+](Cc2cccnc2)no1)Nc1cccc(C(F)(F)F)c1` [Example 29, (3-(pyridin-3-ylmethyl)-1,2,3-oxadiazol-3-ium-5-yl)((3-(trifluoromethyl)phenyl)carbamoyl)amide], for which the EC50 in test [2] lay within 1 to 20 µM.

`O=C([N-]c1c[n+](Cc2ccc(-c3c(F)nc[nH]c3=O)cc2)no1)Nc1cccc(C(F)(F)F)c1` [Example 107, (3-(4-(4-fluoro-6-oxo-1,6-dihydropyrimidin-5-yl)benzyl)-1,2,3-oxadiazol-3-ium-5-yl)((3-(trifluoromethyl)phenyl)carbamoyl)amide]: in test [2], the EC50 was 1 to 20 µM.

Consider `Cc1cc(NC(=O)[N-]c2c[n+](C(C)Cc3ccccc3)no2)cc(C(F)(F)F)c1` (stereo not shown) [Example 33, ((3-methyl-5-(trifluoromethyl)phenyl)carbamoyl)(3-(1-phenylpropan-2-yl)-1,2,3-oxadiazol-3-ium-5-yl)amide], for which the EC50 in test [2] is > 20 µM.

In the case of `CC(Cc1ccc(Cl)c(Cl)c1)[n+]1cc([N-]C(=O)Nc2cccc(C(F)(F)F)c2)on1` (stereo not shown) [Example 9, (3-(1-(3,4-dichlorophenyl)propan-2-yl)-1,2,3-oxadiazol-3-ium-5-yl)((3-(trifluoromethyl)phenyl)carbamoyl)amide], the EC50 in test [2] lay within 1 to 20 µM.

As for `CC(=O)NC[C@@H](Cc1ccc(-c2ccccc2)cc1)[n+]1cc([N-]C(=O)Nc2cccc(C(F)(F)F)c2)on1` [Example 71, (R)-(3-(1-([1,1′-biphenyl]-4-yl)-3-acetamidopropan-2-yl)-1,2,3-oxadiazol-3-ium-5-yl)((3-(trifluoromethyl)phenyl)carbamoyl)amide], the half-maximal effective concentration (EC50) in test [2] is > 20 µM.

For the compound `Cc1ncnc(OCCN(C)C)c1-c1ccc(C[n+]2cc([N-]C(=O)Nc3cccc(C(F)(F)F)c3)on2)nc1` [Example 123, ((3-((5-(4-(2-(metheyliumyl(methyl)ammonio)ethoxy)-6-methylpyrimidin-5-yl)pyridin-2-yl)methyl)-1,2,3-oxadiazol-3-ium-5-yl)((3-(trifluoromethyl)phenyl)carbamoyl)amide) (2,2,2-trifluoroacetate)], the concentration giving a half-maximal response (EC50) in test [2] was 0.1 to 1 µM.

For `Cc1c(-c2ccc(C[n+]3cc([N-]C(=O)Nc4cccc(C(F)(F)F)c4)on3)cc2)cnn1C` [Example 95, (3-(4-(1,5-dimethyl-1H-pyrazol-4-yl)benzyl)-1,2,3-oxadiazol-3-ium-5-yl)((3-(trifluoromethyl)phenyl)carbamoyl)amide], in test [2], the half-maximal effective concentration (EC50) lay in the range of 0.1 to 1 µM.

What is called IC50 is the concentration needed to halve the response being measured. By EC50 is commonly meant the concentration at which the effect is half-maximal.
